From patent publication US7799775B2, “Pyrimidine derivatives” (ASKA Pharmaceutical Co., Ltd., priority 2004, dated 2010)
Where a name gives a salt, the structure may show the parent alone.

Experiments:
[1] = system: rats under restraint stress; experiment: Measurement of defecation acceleration in rats under restraint stress; type: in vivo, rat; settings: 1 hour restraint stress, group average (Normal 1.7, Control 6.8)
Description: (5) Measurement of Defecation Acceleration in Rats under Restraint Stress […] Feed and drinking water were left for their free ingestion until the morning of the day on which the test was given. On the day of the experiment, test compounds were orally administered and positive control solution (the used compounds were dissolved in 1N-hydrochloric acid and diluted with a suitable amount of saline) was administered intraperitoneally. Five (5) minutes thereafter, under lightly anesthetized condition, the rats were placed under restraint stress, with their upper half of the bodies including the front feet immobilized with gum tape. The restraint stress loading was conducted for an hour, and the number of excrements discharged during that period was counted. […] Those compounds which were used as the positive control chemicals used in the acceleration of defecation in rats under restraint stress are identified with the following structures.

5-HT1A receptor = target: T1, 5-HT1A receptor (Rattus norvegicus, UniProt P19327); experiment: Measurement of 5-HT1A receptor agonistic action on rats (in vivo): lower lip retraction and flat body posture; settings: SD male rats, 10 mg/kg intraperitoneal; maximum of group evaluation points, 4 grades 0-3, observed 5-30 min after administration
T1 construct: from tissue; host or cells: whole animal (SD male rats), behavioural read-out
T1 sequence (P19327 1-422): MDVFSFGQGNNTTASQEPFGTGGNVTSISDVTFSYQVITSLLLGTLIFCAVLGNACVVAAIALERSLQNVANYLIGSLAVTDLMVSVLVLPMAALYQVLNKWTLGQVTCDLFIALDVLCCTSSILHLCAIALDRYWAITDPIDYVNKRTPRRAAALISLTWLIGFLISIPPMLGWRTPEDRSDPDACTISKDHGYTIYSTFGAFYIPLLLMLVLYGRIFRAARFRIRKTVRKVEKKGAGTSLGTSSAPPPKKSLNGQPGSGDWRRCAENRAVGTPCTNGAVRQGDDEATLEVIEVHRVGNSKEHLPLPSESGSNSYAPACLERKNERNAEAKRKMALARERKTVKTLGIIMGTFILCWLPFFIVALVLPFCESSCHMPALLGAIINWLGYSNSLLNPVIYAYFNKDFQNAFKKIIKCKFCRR
Description: (3) Measurement of 5-HT1A Receptor Agonistic Action on Rats (in Vivo):
Seven weeks old SD male rats were divided into 4-5 rats per group which were accustomized to the experimental environments twice. A week after the second accustomization, the rats were put into a transparent plastic case, and 10 mg/kg of a test compound (as dissolved in 1N-hydrochloric acid and diluted with suitable amount of saline) was intraperitoneally administered thereto. Immediately before the administration and 5, 10, 20 and 30 minutes after the administration, behaviors of the rats were observed as to lower lip retraction (LLP) and flat body posture (FBP). The results were evaluated in 4 grades (0: no reaction, 1: feeble reaction, 2: medium reaction, 3: maximum reaction).

5-HT3 receptor = target: T2, 5-HT3 receptor (Rattus norvegicus, UniProt P35563); experiment: Measurement of 5-HT3 receptor antagonistic action on rats (in vivo): inhibition of serotonin-induced bradycardia (BJ reflex); settings: anesthetized SD male rats, dose 1.0 mg/kg intravenous, serotonin 300 μg/kg 10 minutes later
T2 construct: from tissue; host or cells: whole animal (SD male rats), serotonin-induced bradycardia
T2 sequence (P35563 24-483): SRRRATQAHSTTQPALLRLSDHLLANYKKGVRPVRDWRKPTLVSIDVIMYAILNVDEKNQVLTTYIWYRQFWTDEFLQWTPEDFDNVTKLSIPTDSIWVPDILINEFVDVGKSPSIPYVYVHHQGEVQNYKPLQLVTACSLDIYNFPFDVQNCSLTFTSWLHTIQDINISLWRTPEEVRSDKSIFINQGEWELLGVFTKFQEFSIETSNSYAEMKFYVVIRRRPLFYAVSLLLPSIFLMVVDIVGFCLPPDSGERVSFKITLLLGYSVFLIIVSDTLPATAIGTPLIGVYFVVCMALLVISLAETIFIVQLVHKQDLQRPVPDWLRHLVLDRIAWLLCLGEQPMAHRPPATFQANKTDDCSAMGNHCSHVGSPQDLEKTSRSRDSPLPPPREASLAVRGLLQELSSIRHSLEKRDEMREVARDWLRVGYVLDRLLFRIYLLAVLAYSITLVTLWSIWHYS
Description: (4) Measurement of 5-HT3 Receptor Antagonistic Action on Rats (in Vivo)
SD male rats (weighing 270-410 g) were anesthetized by peritoneal administration of 1.25 g/kg of urethane (as dissolved in distilled water), and then catheters for measuring blood pressure and heart rate were inserted into their left carotid artery and a catheter for administration of test compound was inserted into their […]. After their blood pressure and heart rate were stabilized, 300 μg/kg of 5-hydroxytryptamine creatinine sulfate (serotonin) was rapidly intravenously administered and thereby induced transient bradycardiac reaction (BC 1) was observed. When the blood pressure and heart rate were re-stabilized after the serotonic administration, the test compounds were intravenously administered to the rats. Ten minutes thereafter, 300 μg/kg of serotonin was once again rapidly intravenously administered and thereby induced transient bradycardiac reaction (BC 2) was observed. Percent inhibition of bradycardia manifestation of each test compound, i.e., BJ reflex inhibition, can be calculated according to the following expression: […]

human 5-HT1A receptor = target: T3, human 5-HT1A receptor (Homo sapiens, UniProt P08908); experiment: Affinity measurement of the compounds to human 5-HT1A receptor (in vitro), [3H]8-OH-DPAT binding; settings: test compound 100 nmols/L; [3H]8-OH-DPAT 0.25 nmols/L; CHO cell membrane expressing human 5-HT1A receptor; read-out: Percent Inhibition (%) on Each Receptor's Binding at 10^−7M, 5-HT1A
T3 construct: purchased Packard Bioscience; host or cells: CHO cells (membrane preparation)
T3 sequence (P08908 1-422): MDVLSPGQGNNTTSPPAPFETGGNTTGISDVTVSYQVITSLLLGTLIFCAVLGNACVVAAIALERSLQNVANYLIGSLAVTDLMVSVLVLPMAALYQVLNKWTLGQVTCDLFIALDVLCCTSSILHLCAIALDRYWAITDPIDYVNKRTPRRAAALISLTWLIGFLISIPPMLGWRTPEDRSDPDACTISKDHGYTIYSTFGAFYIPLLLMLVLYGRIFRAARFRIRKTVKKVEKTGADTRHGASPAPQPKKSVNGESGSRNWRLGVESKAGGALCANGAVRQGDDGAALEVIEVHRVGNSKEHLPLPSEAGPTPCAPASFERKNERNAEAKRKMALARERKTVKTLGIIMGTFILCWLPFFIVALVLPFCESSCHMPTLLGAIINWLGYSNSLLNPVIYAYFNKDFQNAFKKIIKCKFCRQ
Procedure, shortened: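 Membranes from CHO cells expressing human 5-HT1A were incubated 60 min at 27 °C with 0.25 nmol/L [3H]8-OH-DPAT and compound in Tris/MgSO4/EDTA/ascorbate buffer, pH 7.4. Bound radioactivity was collected on PEI-soaked GF/C filters and counted; percent inhibition was corrected for non-specific binding defined with 10 μmol/L 8-OH-DPAT.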

human 5-HT3 receptor = target: T4, human 5-HT3 receptor (Homo sapiens, UniProt P46098); experiment: Measurement of affinity to human 5-HT3 receptor (in vitro), [3H]BRL-43694 binding; settings: test compound 100 nmols/L; [3H]BRL-43694 0.5 nmols/L; HEK-293 cell membrane expressing human 5-HT3 receptor; read-out: Percent Inhibition (%) on Each Receptor's Binding at 10^−7M, 5-HT3
T4 construct: purchased BIOLINKS K.K; host or cells: HEK-293 cells (membrane preparation)
T4 sequence (P46098 24-478): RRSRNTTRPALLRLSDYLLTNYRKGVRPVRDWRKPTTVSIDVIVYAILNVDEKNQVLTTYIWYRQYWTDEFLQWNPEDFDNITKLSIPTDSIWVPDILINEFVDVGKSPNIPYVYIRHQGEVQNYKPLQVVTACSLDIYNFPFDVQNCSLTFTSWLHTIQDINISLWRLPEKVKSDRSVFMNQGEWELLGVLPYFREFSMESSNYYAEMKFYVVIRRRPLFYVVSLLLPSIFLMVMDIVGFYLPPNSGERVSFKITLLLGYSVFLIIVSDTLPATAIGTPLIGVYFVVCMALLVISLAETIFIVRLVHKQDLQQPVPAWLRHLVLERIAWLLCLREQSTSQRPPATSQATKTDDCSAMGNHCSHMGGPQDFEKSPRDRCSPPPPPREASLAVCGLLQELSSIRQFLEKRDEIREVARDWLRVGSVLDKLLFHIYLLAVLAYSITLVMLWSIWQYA
Procedure, shortened: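 Membranes from HEK-293 cells expressing the receptor were incubated with 0.5 nmol/L radioligand and compound for 60 min at 25 °C in Tris/MgCl2/EDTA buffer, pH 7.5. Bound radioactivity was collected by filtration and counted. Percent inhibition was corrected for non-specific binding defined with 10 μmol/L tropisetron; compounds were tested at 100 nmol/L.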

[2] = 0.3 mg/kg intraperitoneal administration
[3] = 1 mg/kg intraperitoneal administration
[4] = 3 mg/kg intraperitoneal administration

Structure (SMILES): CN1[C@@H]2CCC[C@H]1C[C@@H](NC(=O)c1nn(C)c3ccccc13)C2.Cl [granisetron, reference compound]
- Number of excrements [1, 2]: 4.3

Structure (SMILES): Cc1[nH]cnc1CN1CCc2c(c3ccccc3n2C)C1=O.Cl [alosetron, reference compound]
- Number of excrements [1, 2]: 5.2
- Number of excrements [1, 3]: 4.1
- Number of excrements [1, 4]: 3.7

Structure (SMILES): O=C(O)CC(O)(CC(=O)O)C(=O)O.O=C1[C@@H]2[C@H]3CC[C@H](C3)[C@@H]2C(=O)N1CCCCN1CCN(c2ncccn2)CC1 [tandospirone, reference compound]
- Number of excrements [1, 3]: 5.7
- Number of excrements [1, 4]: 4.3
- Number of excrements ([1]; 10 mg/kg intraperitoneal administration): 3.8

Structure (SMILES): Cc1sc2nc(SCCCN3CCN(c4ccc5ccccc5n4)CC3)[nH]c(=O)c2c1C [Example 2-4, 5,6-dimethyl-2-[3-(4-quinolin-2-yl-piperazin-1-yl)propylthio]-3H-thieno[2,3-d]pyrimidin-4-one]
- melting point: 224.8 to 225.9 °C

Structure (SMILES): Cc1sc2nc(SCCCN3CCN(c4ccccn4)CC3)n(N)c(=O)c2c1C [Example 1-2, 3-amino-5,6-dimethyl-2-[3-(4-pyridin-2-ylpiperazin-1-yl)propylthio]-3H-thieno[2,3-d]pyrimidin-4-one]
- melting point: 183.1 to 184.8 °C

Structure (SMILES): Cc1sc2nc(SCCCN3CCN(c4nc5ccccc5s4)CC3)n(N)c(=O)c2c1C [Example 1-6, 3-amino-2-[3-(4-benzothiazol-2-ylpiperazin-1-yl)propylthio]-5,6-dimethyl-3H-thieno[2,3-d]pyrimidin-4-one]
- melting point: 200.5 to 201.2 °C

Structure (SMILES): Cc1nccn1C[C@H]1CCc2c(c3cccc4c3n2CCC4)C1=O [cilansetron, reference compound]
- Number of excrements [1, 3]: 4.0

Structure (SMILES): COc1ccc2ccnc(N3CCNCC3)c2c1 [Production Example 34, 7-methoxy-1-piperazin-1-ylisoquinoline]
- 5-HT1A Receptor Agonistic Action on Rats, FBP (5-HT1A receptor): 2.8
- 5-HT1A Receptor Agonistic Action on Rats, LLR (5-HT1A receptor): 3.0
- BC Inhibition (%) (5-HT3 receptor): 92.0%

Structure (SMILES): c1ccc2c(N3CCNCC3)nccc2c1 [Production Example 35, 1-piperazin-1-ylisoquinoline]
- BC Inhibition (%) (5-HT3 receptor): 94.6%

Structure (SMILES): Cl.O=C1CC2(CCCC2)CC(=O)N1CCCCN1CCN(c2ncccn2)CC1 [buspirone, reference compound]
- Number of excrements [1, 3]: 4.3

Structure (SMILES): Cc1ccc2ccnc(N3CCNCC3)c2c1 [Production Example 46, 7-methyl-1-piperazin-1-ylisoquinoline]
- BC Inhibition (%) (5-HT3 receptor): 94.4%

Structure (SMILES): c1cnc2c(N3CCN4CCC[C@H]4C3)nccc2c1 [Production Example 74, 8-((8aS)-octahydropyrrolo[1,2-a]pyrazin-2-yl)-1,7-naphthyridine]
- inhibition at 0.1 µM (human 5-HT1A receptor): 94.6%
- inhibition at 0.1 µM (human 5-HT3 receptor): 98.9%

Structure (SMILES): Nn1c(SCCCN2CCN(c3ccc4ccccc4n3)CC2)nc2sc3c(c2c1=O)CCCC3 [Example 1-4, 3-amino-2-[3-(4-quinolin-2-ylpiperazin-1-yl)propylthio]-5,6,7,8-tetrahydro-3H-benzo[4,5]thieno[2,3-d]pyrimidin-4-one]
- inhibition at 0.1 µM (human 5-HT1A receptor): 96.6%
- inhibition at 0.1 µM (human 5-HT3 receptor): 93.2%

Structure (SMILES): Nn1c(CCCCN2CCN(c3ccc4ccccc4n3)CC2)nc2ccc(F)cc2c1=O [Example 4-56, 3-amino-6-fluoro-2-[4-(4-quinolin-2-ylpiperazin-1-yl)butyl]-3H-quinazolin-4-one]
- inhibition at 0.1 µM (human 5-HT1A receptor): 96.9%
- inhibition at 0.1 µM (human 5-HT3 receptor): 50.2%

Structure (SMILES): CN1CCN(c2nccc3ccc(Cl)cc23)CC1 [Production Example 50, 7-chloro-1-(4-methylpiperazin-1-yl)isoquinoline]
- BC Inhibition (%) (5-HT3 receptor): 86.8%

Structure (SMILES): Oc1ccc2ccnc(N3CCNCC3)c2c1 [Production Example 95, 7-hydroxy-1-piperazin-1-ylisoquinoline hydrochloride]
- BC Inhibition (%) (5-HT3 receptor): 96.0%

Structure (SMILES): CCOC(=O)c1sc2nc(SCCCN3CCN(c4ccc5ccccc5n4)CC3)n(N)c(=O)c2c1C [Example 1-14, 3-amino-5-methyl-4-oxo-2-[3-(4-quinolin-2-ylpiperazin-1-yl)-propylthio]-3,4-dihydrothieno[2,3-d]pyrimidine-6-carboxylic acid ethyl ester]
- inhibition at 0.1 µM (human 5-HT1A receptor): 99.8%
- inhibition at 0.1 µM (human 5-HT3 receptor): 95.9%

Structure (SMILES): c1cc2occc2c(N2CCN3CCCCC3C2)n1 (centres unmarked) [Production Example 119, 4-octahydropyrido[1,2-a]pyrazin-2-ylfuro[3,2-c]pyridine]
- inhibition at 0.1 µM (human 5-HT1A receptor): 33.7%
- inhibition at 0.1 µM (human 5-HT3 receptor): 71.9%
